Results taken from ChEMBL document CHEMBL4041490, “Discovery of nanomolar ligands with novel scaffolds for the histamine H4 receptor by virtual screening” (Eur J Med Chem, 2017).
pEC50, pKi: −log10 of the molar value.

Tests used:
Histamine H4 receptor [1] = molecular target: T1, Histamine H4 receptor (Homo sapiens, UniProt Q9H3N8); assay: Antagonist activity at H4 receptor in human SH-SY5Y cells assessed as inhibition of imetit-induced GTPgamma[35S] binding at 1 uM after 30 mins by microbeta scintillation counting method relative to control; format: cell-based
T1 sequence (Q9H3N8 whole entry): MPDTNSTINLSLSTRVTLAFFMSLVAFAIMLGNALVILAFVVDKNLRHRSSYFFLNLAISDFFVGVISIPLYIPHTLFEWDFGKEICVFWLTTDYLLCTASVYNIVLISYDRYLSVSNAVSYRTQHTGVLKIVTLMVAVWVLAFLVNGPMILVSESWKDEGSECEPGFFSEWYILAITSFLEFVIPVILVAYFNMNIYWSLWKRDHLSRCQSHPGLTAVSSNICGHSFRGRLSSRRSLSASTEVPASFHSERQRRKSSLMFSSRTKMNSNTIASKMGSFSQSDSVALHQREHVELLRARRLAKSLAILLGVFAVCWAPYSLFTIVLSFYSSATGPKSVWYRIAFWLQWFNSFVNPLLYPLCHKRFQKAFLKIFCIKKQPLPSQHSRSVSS

Histamine H4 receptor [2] = molecular target: T1, Histamine H4 receptor; assay: Antagonist activity at H4 receptor in human SH-SY5Y cells assessed as inhibition of imetit-induced GTPgamma[35S] binding after 30 mins by microbeta scintillation counting method; format: cell-based
Histamine H4 receptor [3] = molecular target: T1, Histamine H4 receptor; assay: Antagonist activity at human H4 receptor expressed in CHO cells co-expressing Galphai2 assessed as inhibition of imetit-induced GTPgamma[35S] binding at 1 uM after 30 mins by microbeta scintillation counting method relative to control; format: cell-based
Histamine H4 receptor [4] = molecular target: T1, Histamine H4 receptor; assay: Antagonist activity at human H4 receptor expressed in CHO cells co-expressing Galphai2 assessed as inhibition of imetit-induced GTPgamma[35S] binding after 30 mins by microbeta scintillation counting method; format: cell-based
D(3) dopamine receptor = D(3) dopamine receptor (Homo sapiens, UniProt P35462); assay: Antagonist activity at D3 receptor (unknown origin)
D(3) dopamine receptor, sequence (P35462 whole entry): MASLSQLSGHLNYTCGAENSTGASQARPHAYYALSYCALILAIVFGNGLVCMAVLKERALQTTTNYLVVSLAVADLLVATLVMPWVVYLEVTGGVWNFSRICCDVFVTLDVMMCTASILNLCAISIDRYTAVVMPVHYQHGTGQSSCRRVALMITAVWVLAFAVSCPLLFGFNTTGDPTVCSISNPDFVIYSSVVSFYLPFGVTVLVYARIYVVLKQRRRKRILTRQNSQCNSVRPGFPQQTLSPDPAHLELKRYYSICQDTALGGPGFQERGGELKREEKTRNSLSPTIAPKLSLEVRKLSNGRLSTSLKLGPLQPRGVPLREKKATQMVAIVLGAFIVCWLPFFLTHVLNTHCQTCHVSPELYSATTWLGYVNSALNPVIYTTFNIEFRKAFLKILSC

Histamine H4 receptor [5] = molecular target: T1, Histamine H4 receptor; assay: Antagonist activity at human H4 receptor assessed as inhibition of imetit-induced GTPgamma[35S] binding after 30 mins by microbeta scintillation counting method
Histamine H3 receptor = Histamine H3 receptor (Homo sapiens, UniProt Q9Y5N1); assay: Antagonist activity at H3 receptor (unknown origin)
Histamine H3 receptor, sequence (Q9Y5N1 whole entry): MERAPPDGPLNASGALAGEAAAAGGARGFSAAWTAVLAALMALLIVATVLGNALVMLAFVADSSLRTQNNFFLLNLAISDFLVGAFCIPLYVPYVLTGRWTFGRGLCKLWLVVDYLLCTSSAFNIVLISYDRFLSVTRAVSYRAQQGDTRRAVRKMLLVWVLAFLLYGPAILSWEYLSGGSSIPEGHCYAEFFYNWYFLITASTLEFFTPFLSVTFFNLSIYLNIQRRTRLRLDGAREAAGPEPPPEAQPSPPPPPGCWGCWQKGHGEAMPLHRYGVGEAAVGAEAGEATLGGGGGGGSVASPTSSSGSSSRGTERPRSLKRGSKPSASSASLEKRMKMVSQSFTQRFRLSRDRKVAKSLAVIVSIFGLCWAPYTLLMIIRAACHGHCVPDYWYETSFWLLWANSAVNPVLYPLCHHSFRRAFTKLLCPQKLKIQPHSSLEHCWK

Histamine H4 receptor [6] = molecular target: T1, Histamine H4 receptor; assay: Agonist activity at human H4 receptor expressed in CHO cell membranes co-expressing Galphai2 at 1 uM by GTPgamma[35S] binding assay
Histamine H4 receptor [7] = molecular target: T1, Histamine H4 receptor; assay: Agonist activity at human H4 receptor expressed in CHO cell membranes co-expressing Galphai2 by GTPgamma[35S] binding assay
Histamine H4 receptor [8] = molecular target: T1, Histamine H4 receptor; assay: Antagonist activity at H4 receptor (unknown origin)
[9] = molecular target: Voltage-gated inwardly rectifying potassium channel KCNH2 (Homo sapiens, UniProt Q12809); assay: Inhibition of human ERG
Voltage-gated inwardly rectifying potassium channel KCNH2, sequence (Q12809 whole entry): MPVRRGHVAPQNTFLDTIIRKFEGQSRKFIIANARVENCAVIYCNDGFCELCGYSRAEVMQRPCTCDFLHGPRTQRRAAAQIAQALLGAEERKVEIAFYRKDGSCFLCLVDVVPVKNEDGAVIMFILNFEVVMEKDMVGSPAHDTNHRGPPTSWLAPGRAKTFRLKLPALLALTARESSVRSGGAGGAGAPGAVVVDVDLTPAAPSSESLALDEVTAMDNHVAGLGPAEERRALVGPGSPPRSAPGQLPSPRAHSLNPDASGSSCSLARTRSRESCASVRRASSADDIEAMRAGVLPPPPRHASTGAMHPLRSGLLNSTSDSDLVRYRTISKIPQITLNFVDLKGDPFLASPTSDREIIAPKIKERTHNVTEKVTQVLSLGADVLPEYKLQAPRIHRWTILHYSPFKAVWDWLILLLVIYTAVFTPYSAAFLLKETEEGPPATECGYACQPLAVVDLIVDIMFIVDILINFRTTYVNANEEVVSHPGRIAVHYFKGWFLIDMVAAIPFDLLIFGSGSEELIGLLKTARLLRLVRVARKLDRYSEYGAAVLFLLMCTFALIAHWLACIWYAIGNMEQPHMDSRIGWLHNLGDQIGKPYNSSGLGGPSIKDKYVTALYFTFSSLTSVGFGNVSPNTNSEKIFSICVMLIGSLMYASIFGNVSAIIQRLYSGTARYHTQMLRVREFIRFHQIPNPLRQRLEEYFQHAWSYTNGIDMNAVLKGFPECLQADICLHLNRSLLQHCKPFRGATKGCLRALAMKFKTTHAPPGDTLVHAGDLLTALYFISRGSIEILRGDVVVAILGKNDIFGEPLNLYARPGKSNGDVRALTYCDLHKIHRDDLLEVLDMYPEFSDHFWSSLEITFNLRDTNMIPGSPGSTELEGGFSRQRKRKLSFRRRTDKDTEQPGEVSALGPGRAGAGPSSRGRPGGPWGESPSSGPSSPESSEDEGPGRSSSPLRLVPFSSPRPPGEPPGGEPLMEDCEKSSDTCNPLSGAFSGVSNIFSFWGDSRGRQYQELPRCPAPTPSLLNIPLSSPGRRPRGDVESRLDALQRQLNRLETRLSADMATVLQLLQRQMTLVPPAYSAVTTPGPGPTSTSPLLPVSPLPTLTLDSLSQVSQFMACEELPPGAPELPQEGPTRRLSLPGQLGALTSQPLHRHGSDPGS

Row | Structure (SMILES) | inhibition (Histamine H4 receptor [1]) [%] | pKi (Histamine H4 receptor [2]) | inhibition (Histamine H4 receptor [3]) [%] | pKi (Histamine H4 receptor [4]) | pKi (Histamine H3 receptor) | other results
1 | CC(C)(CN=C(c1ccccc1O)c1ccccc1O)c1c[nH]cn1 | > 20 | 7.72 |  |  |  | 
2 | O=C(O)C(Cc1cccc2ccccc12)NC(=O)[C@@H](CS)Cc1ccccc1 (some centres not stated) | > 20 | 7.21 |  |  |  | 
3 | COc1ccc2c(c1)c(CC(=O)NCCCn1ccnc1)c(C)n2C(=O)c1ccc(Cl)cc1 |  |  | > 20 | 5.38 |  | 
4 | c1ccc(C(OCCCc2c[nH]cn2)(c2ccccc2)c2ccccc2)cc1 |  |  | > 20 |  |  | 
5 | O=C(NCCCCN1CCN(c2cccc(Cl)c2Cl)CC1)c1cncc(Br)c1 |  |  |  |  |  | pKi (D(3) dopamine receptor): 8.55; pKi (Histamine H4 receptor [5]): 5.51
6 | O=C(CCNC(=O)C(Cc1ccccc1)Cn1ccnc1)OCc1ccccc1 (configuration not stated) | > 20 | 6.76 |  |  |  | 
7 | Brc1ccc(C(OCCCc2c[nH]cn2)c2ccc3ccccc3c2)cc1 (configuration not stated) | > 20 | 8.40 |  |  | 7.33 | 
8 | O=C(c1ccccc1)c1ccc(OCCCCCN2CCCC2)cc1 |  |  | > 20 | 4.89 |  | 
9 | CC(=O)SCC(Cc1ccc2c(c1)OCO2)C(=O)NCC(=O)OCc1ccccc1 (configuration not stated) |  |  | > 20 | 6.67 |  | 
10 | c1ccc(C(OCCCc2cnc[nH]2)(c2ccccc2)c2ccccc2)cc1 |  |  |  | 6.62 | < 6.00 | 
11 | O=C(Nc1cccc2ccccc12)N1CCC(c2c[nH]cn2)CC1 |  |  | > 20 | 5.96 |  | 
12 | O=C(/C=C/c1ccccc1)c1ccc(OCCCc2c[nH]cn2)cc1 | > 20 | 7.96 |  |  | 8.08 | 
13 | Nc1ccc(NCCc2ccc(OCCCN3CCCCC3)cc2)nc1 |  |  | > 20 | 4.52 | 8.32 | 
14 | COc1ccccc1N1CCN(CCCCNc2nccc3ccccc23)CC1 | > 20 | 7.29 |  |  |  | 
15 | COc1ccc2c(c1)c(CC(=O)NCCCO)c(C)n2C(=O)c1ccc(Cl)cc1 |  |  |  |  |  | Activity (Histamine H4 receptor [6]): > 20%; pEC50 (Histamine H4 receptor [7]): 5.11
16 | O=C(NC(c1ccc(Cl)cc1)c1ccc(Cl)cc1)OCCCc1c[nH]cn1 | > 20 | 7.84 |  |  | 6.59 | 

Row | Structure (SMILES) | inhibition (Histamine H4 receptor [1]) [%] | pKi (Histamine H4 receptor [2]) | inhibition (Histamine H4 receptor [3]) [%] | pKi (Histamine H4 receptor [4]) | pKi (Histamine H3 receptor) | other results
17 | COc1cc2c(cc1OC)C(C)=C(C(=O)NCCCCN1CCN(c3ccccc3F)CC1)C2 |  |  | > 20 | 5.42 |  | pKi (D(3) dopamine receptor): 9.30
18 | COc1ccc(/C(=N/[C@H](C)Cc2cnc[nH]2)c2ccccc2)c(O)c1 |  |  |  |  |  | Activity (Histamine H4 receptor [6]): > 20%; pEC50 (Histamine H4 receptor [7]): 5.17
19 | O=c1[nH]c2ccccc2n1C1CCN(CCCC(c2ccc(F)cc2)c2ccc(F)cc2)CC1 [PIMOZIDE] |  |  |  |  |  | pKi (Histamine H4 receptor [8]): 5.70
20 | c1ccc(C(OCCCc2c[nH]cn2)c2ccccc2)cc1 | > 20 | 7.60 |  |  | 7.62 | pKi [9]: 6.30
21 | Ic1ccc(C(OCCCc2c[nH]cn2)c2ccccc2)cc1 (configuration not stated) | > 20 | 8.52 |  |  | 7.85 | 
22 | CC(=O)c1ccc(OCc2ccc(CN3CCCC(C)C3)cc2)cc1 (configuration not stated) |  |  | > 20 | 4.79 | 7.66 | 
23 | CCOC(=O)CN1Cc2ccccc2C[C@@H](NC(=O)C(Cc2ccccc2)C(=O)NO)C1=O (some centres not stated) |  |  | > 20 | 5.52 |  | 
24 | Clc1cccc(N2CCN(CCCCNc3ccc4ccccc4n3)CC2)c1Cl |  |  | > 20 | 6.90 |  | pKi [9]: 8.00
25 | O=[N+]([O-])c1cccc(C(OCCCc2c[nH]cn2)c2ccccc2)c1 (configuration not stated) | > 20 | 8.57 |  |  | 8.02 | 
26 | O=C(CCCc1ccc(I)cc1)OCCCc1c[nH]cn1 |  |  | > 20 |  |  | 
27 | Clc1cccc(N2CCN(CCCCNc3nccc4ccccc34)CC2)c1Cl | > 20 | 8.28 |  |  |  | pKi [9]: 7.52
28 | FC(F)(F)c1cccc(N2CCN(CCCCNc3nccc4ccccc34)CC2)c1 | > 20 | 8.27 |  |  |  | 
29 | O=C(CCCc1ccc(I)cc1)OCCCc1cnc[nH]1 |  |  |  | 6.93 | 7.39 | 
30 | O=C(NCCCCN1Cc2cccc3cccc(c23)C1)c1ccc2ccccc2c1 | > 20 | 6.40 |  |  |  | 
31 | c1ccc(-c2ccc(CCCOCCCc3c[nH]cn3)cc2)cc1 | > 20 | 7.57 |  |  | 6.93 | 
